Measurements from patent publication US6441195B1, “Substituted sulphonylamino(thio) carbonyl compounds” (Bayer Aktiengesellschaft, priority 1995, dated 2002).

Columns and labels:
Assay type in all cases: in vivo
Soya beans = assay: Pre-emergence test/Greenhouse, Soya beans; settings: in vivo
Experimental: To produce a suitable preparation of the active compound, 1 part by weight of active compound is mixed with the stated amount of solvent, the stated amount of emulsifier is added and the concentrate is diluted with water to the desired concentration.
Seeds of the test plants are sown in normal soil. After about 24 hours, the soil is watered with the preparation of active compound. Advantageously, the amount of water per unit area is kept constant. The active compound concentration in the preparation is not important, only the active compound appliation rate per unit area matters.
After three weeks, the degree of damage to the plants is rated in % damage in comparison to the development of the untreated control.
0%=no action (like untreated control)

weeds = assay: Pre-emergence test (greenhouse), activity against weeds; settings: in words
In short: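 Compound formulated in acetone with alkylaryl polyglycol ether emulsifier, diluted in water, and watered onto soil about 24 h after sowing, dosed by application rate per unit area. Damage rated after three weeks as % versus untreated control (0% = no action).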

Maize = assay: Pre-emergence test/Greenhouse, Maize; settings: in vivo
In short: (§1)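 Compound formulated with solvent and emulsifier, diluted in water, and watered onto soil about 24 h after sowing; application rate per unit area is what counts. Damage rated after three weeks as % versus untreated control (0% = no action).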

Poa = assay: Pre-emergence test/Greenhouse, Poa; settings: after three weeks
In short: as §1

Lolium = assay: Pre-emergence test/Greenhouse, Lolium; settings: after three weeks
In short: as §1

Ambrosia = assay: Pre-emergence test/Greenhouse, Ambrosia; settings: after three weeks
In short: as §1

Matricaria = assay: Pre-emergence test/Greenhouse, Matricaria; settings: after three weeks
In short: as §1

Solanum = assay: Pre-emergence test/Greenhouse, Solanum; settings: after three weeks
In short: as §1

Sorghum = assay: Pre-emergence test/Greenhouse, Sorghum; settings: after three weeks
In short: as §1

| Compound | degree of damage to the plants (% damage vs untreated control), Soya beans (Soya beans) [%] | activity against weeds (weeds) | degree of damage to the plants (% damage vs untreated control), Maize (Maize) [%] | degree of damage to the plants (% damage vs untreated control), Poa (Poa; 60 g of ai./ha) [%] | degree of damage to the plants (% damage vs untreated control), Lolium (Lolium; 60 g of ai./ha) [%] | degree of damage to the plants (% damage vs untreated control), Ambrosia (Ambrosia; 60 g of ai./ha) [%] | degree of damage to the plants (% damage vs untreated control), Matricaria (Matricaria; 60 g of ai./ha) [%] | degree of damage to the plants (% damage vs untreated control), Solanum (Solanum; 60 g of ai./ha) [%] | degree of damage to the plants (% damage vs untreated control), Poa (Poa; 125 g of ai./ha) [%] | degree of damage to the plants (% damage vs untreated control), Lolium (Lolium; 125 g of ai./ha) [%] | degree of damage to the plants (% damage vs untreated control), Ambrosia (Ambrosia; 125 g of ai./ha) [%] | degree of damage to the plants (% damage vs untreated control), Matricaria (Matricaria; 125 g of ai./ha) [%] | degree of damage to the plants (% damage vs untreated control), Solanum (Solanum; 125 g of ai./ha) [%] | degree of damage to the plants (% damage vs untreated control), Sorghum (Sorghum; 60 g of ai./ha) [%] | degree of damage to the plants (% damage vs untreated control), Sorghum (Sorghum; 125 g of ai./ha) [%] | degree of damage to the plants (% damage vs untreated control), Poa (Poa; 15 g of ai./ha) [%] | degree of damage to the plants (% damage vs untreated control), Lolium (Lolium; 15 g of ai./ha) [%] | degree of damage to the plants (% damage vs untreated control), Ambrosia (Ambrosia; 15 g of ai./ha) [%] | degree of damage to the plants (% damage vs untreated control), Matricaria (Matricaria; 15 g of ai./ha) [%] | degree of damage to the plants (% damage vs untreated control), Solanum (Solanum; 15 g of ai./ha) [%] |
| --- | --- | --- | --- | --- | --- | --- | --- | --- | --- | --- | --- | --- | --- | --- | --- | --- | --- | --- | --- | --- |
| CCn1c(OC)nn(C(=O)NS(=O)(=O)c2c(C)csc2C(=O)OC)c1=O [Example 37] | 10 | very strong activity against weeds | 10 | 70 | 90 | 80 | 95 | 90 |  |  |  |  |  |  |  |  |  |  |  |  |
| CCCc1nn(C(=O)NS(=O)(=O)c2c(C)csc2C(=O)OC)c(=O)n1OC [Example 39] | 20 | very strong activity against weeds | 0 | 90 | 95 | 95 | 70 | 90 |  |  |  |  |  |  |  |  |  |  |  |  |
| COC(=O)c1scc(C)c1S(=O)(=O)NC(=O)n1nc(OC(C)C)n(C)c1=O [Example 40] | 30 | very strong activity against weeds | 10 | 95 | 90 | 95 | 95 | 95 |  |  |  |  |  |  |  |  |  |  |  |  |
| CCSc1nn(C(=O)NS(=O)(=O)c2c(C)cccc2C(=O)OC(C)C)c(=O)n1C [Example 42] | 10 | very strong activity against weeds | 10 | 95 | 95 | 95 | 95 | 95 |  |  |  |  |  |  |  |  |  |  |  |  |
| CCCOC(=O)c1cccc(C)c1S(=O)(=O)NC(=O)n1nc(OCC)n(CC)c1=O [Example 45] | 20 | very strong activity against weeds | 10 |  |  |  |  |  | 95 | 90 | 95 | 90 | 95 |  |  |  |  |  |  |  |
| CCCOC(=O)c1cccc(C)c1S(=O)(=O)NC(=O)n1nc(SCC)n(C)c1=O [Example 48] | 20 | very strong activity against weeds | 30 |  |  |  |  |  | 95 | 95 | 95 | 100 | 95 |  |  |  |  |  |  |  |
| CCOC(=O)c1scc(C)c1S(=O)(=O)NC(=O)n1nc(OCC)n(CC)c1=O [Example 64] | 30 | very strong activity against weeds | 10 | 60 | 90 | 100 | 100 | 100 |  |  |  |  |  |  |  |  |  |  |  |  |
| CCOc1nn(C(=O)NS(=O)(=O)c2c(C)csc2C(=O)OC(C)C)c(=O)n1C [Example 76] | 30 | very strong activity against weeds | 0 |  | 95 |  | 100 | 95 |  |  |  |  |  | 95 |  |  |  |  |  |  |
| Cc1csc(C(=O)OC(C)C)c1S(=O)(=O)NC(=O)n1nc(OC(C)C)n(C)c1=O [Example 84] | 30 | very strong activity against weeds | 5 |  |  |  |  |  |  | 95 |  | 95 | 100 |  | 90 |  |  |  |  |  |
| CCOc1nn(C(=O)NS(=O)(=O)c2c(C)csc2C(=O)OC(C)C)c(=O)n1CC [Example 86] | 40 | very strong activity against weeds | 10 |  |  |  |  |  |  | 80 |  | 100 | 95 |  | 70 |  |  |  |  |  |
| COC(=O)c1cccc(C)c1S(=O)(=O)NC(=O)n1nc(OCC(F)(F)F)n(C2CC2)c1=O [Example 142] | 10 | very strong activity against weeds | 20 |  |  |  |  |  |  |  |  |  |  |  |  | 80 | 95 | 80 | 80 | 80 |
| CCOn1c(SC)nn(C(=O)NS(=O)(=O)c2c(C)cccc2C(=O)OC)c1=O [Example 146] | 10 | very strong activity against weeds | 0 | 90 | 80 | 80 | 80 | 90 |  |  |  |  |  |  |  |  |  |  |  |  |
| C=CCOc1nn(C(=O)NS(=O)(=O)c2c(C)cccc2C(=O)OC)c(=O)n1C1CC1 [Example 147] | 0 | very strong activity against weeds | 30 |  |  |  |  |  |  |  |  |  |  |  |  | 90 | 95 | 70 | 70 | 80 |
| C#CCSc1nn(C(=O)NS(=O)(=O)c2c(C)cccc2C(=O)OC)c(=O)n1C [Example 161] | 20 | very strong activity against weeds | 0 | 95 | 95 | 95 | 95 | 95 |  |  |  |  |  |  |  |  |  |  |  |  |
